The test system of experiment [1] is bladder carcinoma RT4 cell line. Briefly: TNF-α-induced cytotoxicity assay (CellTiter-Glo viability). The following applies: Homo sapiens, RT-4, 72 h. The class given is cell-based. The procedure: A viability assay, using bladder carcinoma RT4 cell line, was used for identifying the potential inhibitory effect of tested compounds on HOIP activity. The viability was determined by CellTiter-Glo Luminescent Cell Viability Assay (G7571, Promega) which measures the ability of generating a luminescent signal proportional to the amount of ATP present in living cells. The assay consists of a few steps: • a) the cells were routinely sub cultivated twice a week with standard complete growth medium composition; • b) cells were preparated for the assay by creating a cell suspension at the density of 0.05 mln cells/mL and dispensed into plates (ViewPlate-384, PerkinElmer) resulting in 1000 cells/well; • c) cells were stimulated with 1.25 ng/mL TNFα and with compounds and incubated for 72 h at 37° C. in the atmosphere with 5% CO2; and • d) for detection cytotoxicity was measured with CellTiter-Glo® Luminescent Cell Viability Assay based on the method described by the manufacturer.

For experiment [2], the target named is T1, human E3 ubiquitin-protein ligase RNF31 (HOIP) (Homo sapiens, UniProt Q96EP0).
T1 sequence (Q96EP0 695-1072 limits assumed): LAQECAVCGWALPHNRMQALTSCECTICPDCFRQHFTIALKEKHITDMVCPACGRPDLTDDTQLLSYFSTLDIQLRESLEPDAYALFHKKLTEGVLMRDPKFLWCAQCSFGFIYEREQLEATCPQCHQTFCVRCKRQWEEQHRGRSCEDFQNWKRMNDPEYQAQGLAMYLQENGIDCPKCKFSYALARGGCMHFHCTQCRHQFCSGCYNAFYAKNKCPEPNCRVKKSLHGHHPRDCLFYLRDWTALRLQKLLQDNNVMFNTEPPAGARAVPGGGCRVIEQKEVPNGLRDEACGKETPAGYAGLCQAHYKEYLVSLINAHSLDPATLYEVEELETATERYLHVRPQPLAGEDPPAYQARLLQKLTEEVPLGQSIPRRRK
Briefly: Cell-free HTRF-based HOIP inhibition assay. Type of experiment: biochemical. The procedure:
This assay was performed in the following steps: • a) synthesis of recombinant fragment of human E3 ubiquitin-protein ligase RNF31 (HOIP), expressed with purity >90% in E. coli system (the protein was prepared as 1 mg/mL stock in a standard formulation); • b) incubation of the compounds in a typical concentration range: 100-0.005 μM, at a final DMSO conc. 1% with a mixture of HOIP and ubiquitin activating enzyme E1 at 25° C., for 1 h at 25° C.; • c) followed by addition of a ubiquitination solution including E2 and substrates (the reaction proceeds for 2.5 h at 25° C.); and • d) HTRF detection was performed using a PHERAstar FSX (BMG Labtech) plate reader (excitation at 337 nm, dual emissions at 665 and 620 nm).

Turning to `COc1ccc(S(=N)(=O)/C=C/CNC(=O)c2ccc[nH]c2=O)cc1F` (stereo not drawn) [Example 186, N-[(2E)-3-[(3-fluoro-4-methoxyphenyl)(imino)oxo-λ^6-sulfanyl]prop-2-en-1-yl]-2-oxo-1,2-dihydropyridine-3-carboxamide], the values for the IC50 in experiment [1] and in experiment [2] were at most 10000 nM and at most 1000 nM, respectively.
Turning to `N=S(=O)(/C=C/CNC(=O)c1cc2c([nH]c1=O)CCCC2)c1ccc(-c2ccccc2)cc1` (stereo not drawn) [Example 156, N-[(2E)-3-({[1,1′-biphenyl]-4-yl}(imino)oxo-λ^6-sulfanyl)prop-2-en-1-yl]-2-oxo-1,2,5,6,7,8-hexahydroquinoline-3-carboxamide], the IC50 in experiment [1] was at most 1000 nM; in experiment [2], at most 100 nM.
Regarding `O=C(NC/C=C/S(=O)(=O)c1ccccc1Cl)c1cc(-c2ccccc2)c[nH]c1=O` [Example 129, N-[(2E)-3-(2-chlorobenzenesulfonyl)prop-2-en-1-yl]-2-oxo-5-phenyl-1,2-dihydropyridine-3-carboxamide], the IC50 in experiment [1] was at most 10000 nM; in experiment [2], at most 1000 nM.
With `COc1ccc(S(=N)(=O)/C=C/CNC(=O)c2cc3cnccc3[nH]c2=O)cc1F` (stereo not drawn) [Example 159, N-[(2E)-3-[(3-fluoro-4-methoxyphenyl)(imino)oxo-λ^6-sulfanyl]prop-2-en-1-yl]-2-oxo-1,2-dihydro-1,6-naphthyridine-3-carboxamide], the IC50 in experiment [1] was at most 100000 nM; in experiment [2] it was at most 1000 nM.
The like results for `COc1ccc(S(=N)(=O)/C=C/CNC(=O)c2cc3c([nH]c2=O)CCN(CC2CC2)C3)cc1F` (stereo not drawn) [Example 185, 6-(cyclopropylmethyl)-N-[(2E)-3-[(3-fluoro-4-methoxyphenyl) (imino)oxo-λ^6-sulfanyl]prop-2-en-1-yl]-2-oxo-1,2,5,6,7,8-hexahydro-1,6-naphthyridine-3-carboxamide] were, in that order, at most 100000 nM and at most 10000 nM.
For `O=C(NC/C=C/S(=O)(=O)c1ccccc1)c1cc2c([nH]c1=O)CCN(C(=O)CC13CC4CC(CC(C4)C1)C3)C2` [Example 106, 6-[2-(adamantan-1-yl)acetyl]-N-[(2E)-3-(benzenesulfonyl)prop-2-en-1-yl]-2-oxo-1,2,5,6,7,8-hexahydro-1,6-naphthyridine-3-carboxamide], the IC50 was at most 10000 nM in experiment [1] and at most 1000 nM in experiment [2].
Regarding `N=S(=O)(/C=C/CNC(=O)c1cc2c([nH]c1=O)CCCC2)c1ccc(C2CCCCC2)cc1` (stereo not drawn) [Example 166, N-[(2E)-3-[(4-cyclohexylphenyl)(imino)oxo-λ^6-sulfanyl]prop-2-en-1-yl]-2-oxo-1,2,5,6,7,8-hexahydroquinoline-3-carboxamide], the results for the IC50 in experiment [1] and in experiment [2] were at most 1000 nM and at most 100 nM, respectively.
The like results for `N=S(=O)(/C=C/CNC(=O)c1cc2c([nH]c1=O)CCCC2)c1cccc(OC(F)(F)F)c1` (stereo not drawn) [Example 168, N-[(2E)-3-[imino(oxo)[3-(trifluoromethoxy)phenyl]-λ^6-sulfanyl]prop-2-en-1-yl]-2-oxo-1,2,5,6,7,8-hexahydroquinoline-3-carboxamide] were, in that order, at most 1000 nM and at most 100 nM.
For `CC(=O)Nc1ccc(S(=N)(=O)/C=C/CNC(=O)c2cc3c([nH]c2=O)CCCC3)cc1` (stereo not drawn) [Example 163, N-[(2E)-3-[(4-acetamidophenyl)(imino)oxo-λ^6-sulfanyl]prop-2-en-1-yl]-2-oxo-1,2,5,6,7,8-hexahydroquinoline-3-carboxamide] the same measures were at most 100000 nM and at most 1000 nM.
For `N=S(=O)(/C=C/CNC(=O)c1cc2c([nH]c1=O)CCCC2)c1ccc(N2CCOCC2)cc1` (stereo not drawn) [Example 160, N-[(2E)-3-{imino[4-(morpholin-4-yl)phenyl]oxo-λ^6-sulfanyl}prop-2-en-1-yl]-2-oxo-1,2,5,6,7,8-hexahydroquinoline-3-carboxamide] the same measures were at most 1000 nM and at most 1000 nM.
On to `COc1ccc(S(=N)(=O)/C=C/CNC(=O)c2cc3c([nH]c2=O)C(C)(C)CCC3)cc1F` (stereo not drawn) [Example 155, N-[(2E)-3-[(3-fluoro-4-methoxyphenyl)(imino)oxo-λ^6-sulfanyl]prop-2-en-1-yl]-8,8-dimethyl-2-oxo-1,2,5,6,7,8-hexahydroquinoline-3-carboxamide], for which the half-maximal inhibitory concentration (IC50) in experiment [1] and in experiment [2] was at most 10000 nM throughout.
With `N#Cc1cc(S(=N)(=O)/C=C/CNC(=O)c2cc3c([nH]c2=O)CCCC3)ccc1N1CCOCC1` (stereo not drawn) [Example 175, N-[(2E)-3-{[3-cyano-4-(morpholin-4-yl)phenyl](imino)oxo-λ^6-sulfanyl}prop-2-en-1-yl]-2-oxo-1,2,5,6,7,8-hexahydroquinoline-3-carboxamide], the IC50 in experiment [1] is at most 10000 nM; in experiment [2], at most 100 nM.
For `N=S(=O)(/C=C/CNC(=O)c1cc2c([nH]c1=O)CCCC2)c1ccc2c(c1)CCO2` (stereo not drawn) [Example 167, N-[(2E)-3-[(2,3-dihydro-1-benzofuran-5-yl)(imino)oxo-λ^6-sulfanyl]Prop-2-en-1-yl]-2-oxo-1,2,5,6,7,8-hexahydroquinoline-3-carboxamide] the same measures were at most 1000 nM and at most 1000 nM.
The like results for `CNc1ccc(S(=N)(=O)/C=C/CNC(=O)c2cc3c([nH]c2=O)CCCC3)cc1` (stereo not drawn) [Example 174, N-[(2E)-3-{imino[4-(methylamino)phenyl]oxo-λ^6-sulfanyl}prop-2-en-1-yl]-2-oxo-1,2,5,6,7,8-hexahydroquinoline-3-carboxamide] were, in that order, at most 1000 nM and at most 1000 nM.
For `COc1ccc(CN2CCc3[nH]c(=O)c(C(=O)NC/C=C/S(=N)(=O)c4ccc(OC)c(F)c4)cc3C2)cc1` (stereo not drawn) [Example 171, N-[(2E)-3-[(3-fluoro-4-methoxyphenyl)(imino)oxo-λ^6-sulfanyl]prop-2-en-1-yl]-6-[(4-methoxyphenyl)methyl]-2-oxo-1,2,5,6,7,8-hexahydro-1,6-naphthyridine-3-carboxamide] the same measures were at most 1000 nM and at most 1000 nM.
In the case of `N=S(=O)(/C=C/CNC(=O)c1cc2c([nH]c1=O)CCCC2)c1ccc(OC2CC2)cc1` (stereo not drawn) [Example 164, N-[(2E)-3-[(4-cyclopropoxyphenyl)(imino)oxo-λ^6-sulfanyl]prop-2-en-1-yl]-2-oxo-1,2,5,6,7,8-hexahydroquinoline-3-carboxamide], the concentration for half-maximal inhibition (IC50) is at most 1000 nM in experiment [1] and at most 100 nM in experiment [2].
Turning to `N#Cc1cc(S(=N)(=O)/C=C/CNC(=O)c2cc3c([nH]c2=O)CCCC3)ccc1N1CCCCC1` (stereo not drawn) [Example 173, N-[(2E)-3-{[3-cyano-4-(piperidin-1-yl)phenyl](imino)oxo-λ^6-sulfanyl}prop-2-en-1-yl]-2-oxo-1,2,5,6,7,8-hexahydroquinoline-3-carboxamide], the IC50 in experiment [1] was at most 1000 nM; in experiment [2], at most 100 nM.
With `COc1ccc(S(=N)(=O)/C=C/CNC(=O)c2cc3cccnc3[nH]c2=O)cc1F` (stereo not drawn) [Example 158, N-[(2E)-3-[(3-fluoro-4-methoxyphenyl)(imino)oxo-λ^6-sulfanyl]prop-2-en-1-yl]-2-oxo-1,2-dihydro-1,8-naphthyridine-3-carboxamide], the IC50 in experiment [1] was at most 10000 nM; in experiment [2], at most 1000 nM.
For `COc1ccc(S(=N)(=O)/C=C/CNC(=O)c2cc3c([nH]c2=O)CCN(C(=O)OC2CCC(F)(F)CC2)C3)cc1F` (stereo not drawn) [Example 183, 4,4-difluorocyclohexyl 3-{[(2E)-3-[(3-fluoro-4-methoxyphenyl) (imino)oxo-λ^6-sulfanyl]prop-2-en-1-yl]carbamoyl}-2-oxo-1,2,5,6,7,8-hexahydro-1,6-naphthyridine-6-carboxylate], the IC50 in experiment [1] is at most 10000 nM; in experiment [2] it was at most 100 nM.
For `CN(C)c1cccc(S(=N)(=O)/C=C/CNC(=O)c2cc3c([nH]c2=O)CCCC3)c1` (stereo not drawn) [Example 165, N-[(2E)-3-{[3-(dimethylamino)phenyl](imino)oxo-λ^6-sulfanyl}prop-2-en-1-yl]-2-oxo-1,2,5,6,7,8-hexahydroquinoline-3-carboxamide], the half-maximal inhibitory concentration (IC50) in experiment [1] and in experiment [2] was at most 1000 nM throughout.
For the compound `N=S(=O)(/C=C/CNC(=O)c1cc2c([nH]c1=O)CCCC2)c1ccc(C(F)(F)F)cc1` (stereo not drawn) [Example 154, N-[(2E)-3-[imino(oxo)[4-(trifluoromethyl)phenyl]-λ^6-sulfanyl]prop-2-en-1-yl]-2-oxo-1,2,5,6,7,8-hexahydroquinoline-3-carboxamide], the values for the concentration for half-maximal inhibition (IC50) in experiment [1] and in experiment [2] were at most 1000 nM and at most 100 nM, respectively.

The values above are taken from patent US20260250250A1, “3-(SULPHONYL OR SULFONIMIDOYL)PROP-2-EN-1-YL]-2-OXO-1,2-DIHYDROPYRIDINE-3-CARBOXAMIDE DERIVATIVES” (Flinder Therapeutics B.V., priority 2022, published 2026).
